Laboratory results published in EP4635945A1, “CRYSTAL FORM OF PROXIMOD, PREPARATION METHOD THEREFOR, AND USE THEREOF” (Jiankuan (Suzhou) Biotechnology Co., Ltd, priority 2022, dated 2024).

Test: Crystal form stability on vacuum drying (XRPD)
Type: physicochemical
Description: After the above sample was dried under vacuum at 50 °C for 6 hours, the XRPD detection was performed. […] The TGA curves of the sample of the crystal form D of proximod which was dried and the sample of the crystal form D of proximod which was dried and placed at room temperature for two days are shown in FIGS. 16 and 17, respectively. […] The theoretical weight loss of the proximod […] is 6.1%. […] Based on the above experimental results, it is inferred that the crystal form D is an unstable sesquihydrate. It is inferred that the crystal form D is an unstable sesquihydrate and is prone to crystal transformation during drying and storage, making it difficult to prepare a pure phase.
The obtained wet sample was subjected to the XRPD detection. The obtained solid was the crystal form F of the present application, and the X-ray powder diffraction (XRPD) pattern of the crystal form F is shown in FIG. 21. After the wet sample was dried under vacuum at 50 °C for 2 hours, the XRPD detection was performed.

Structure (SMILES)	Crystal form after drying (XRPD) (dried under vacuum at 50 °C for 6 hours)	Crystal form after drying (XRPD) (wet sample dried under vacuum at 50 °C for 2 hours)
CCCc1nc(-c2ccc(-c3ccc(CCC(N)(CO)CO)cc3)cc2)co1.Cl [Crystal form D, 2-amino-2-{2-(4'-(2-propyloxazol-4-yl)-[1,1'-biphenyl]-4-yl)ethyl}-1,3-propanediol hydrochloride]	partially crystal transformed into the crystal form A	–
CCCc1nc(-c2ccc(-c3ccc(CCC(N)(CO)CO)cc3)cc2)co1.Cl [Crystal form F, 2-amino-2-{2-(4'-(2-propyloxazol-4-yl)-[1,1'-biphenyl]-4-yl)ethyl}-1,3-propanediol hydrochloride]	–	partially crystal transformed into the crystal form A
